Measurements as given in patent publication US20120015907A1, “Furopyridine compounds and uses thereof” (NOVARTIS AG, priority 2010, published 2012).
pIC50: −log10 of the molar value.

Experiments:
[1] = target: T1, HCV polymerase (Hepatitis C virus genotype 1b, UniProt Q9WMX2); assay: biochemical; conditions: polymerase assay of Biological Example 1; read-out: NS5B polymerase IC50
T1 construct: (His)6 (C)

[2] = system: HCV replicon I389luc-ubi-neo/NS3-3'/ET in ET (Huh-lucubineo-ET) cells; assay: Replicon assay (Biological Example 2), luciferase read-out; assay type: cell-based; conditions: Hepatitis C virus, luciferase activity 48 hours after compound addition
Procedure: A cell line, ET (Huh-lucubineo-ET) is used for screening of compounds for inhibiting HCV RNA dependent RNA polymerase. The ET cell line is stably transfected with RNA transcripts harboring a I389luc-ubi-neo/NS3-3′/ET; replicon with firefly luciferase-ubiquitin-neomycin phosphotransferase fusion protein and EMCV-IRES driven NS3-5B polyprotein containing the cell culture adaptive mutations (E1202G; […]; K1846T) (Krieger at al, 2001 and unpublished). The ET cells are grown in DMEM (Dulbeco's Modified Eagle's Medium), supplemented with 10% fetal calf serum, 2 mM Glutamine, Penicillin (100 IU/mL)/Streptomycin (100 μg/mL), 1× nonessential amino acids, and 250 μg/mL G418 (“Geneticin”). Reagents are all available through Life Technologies (Bethesda, Md.). The cells are plated at 0.5-1.0×10^4 cells/well in the 96 well plates and incubated for 24 hrs before adding test compound. The compounds are added to the cells to achieve a final concentration of 0.1 nM to 50 μM and a final DMSO (dimethylsulfoxide) concentration of 0.5%. Luciferase activity is measured 48 hours later by adding a lysis buffer and the substrate (Catalog number Glo-lysis buffer E2661 and Bright-Glo luciferase system E2620 Promega, Madison, Wis.). Cells should not be too confluent during the assay. Percent inhibition of replication data is plotted relative to no compound control. To determine the EC50 (effective concentration at which 50% of the maximum inhibition is observed), a 10 point, 3-fold serial dilution for each compound is used, which spans a concentration range of 1000 fold. EC50 values were calculated by fitting % inhibition at each concentration to the following equation:
% inhibition=100%/[(EC50/[I])^b+1]
where b is Hill's coefficient.

`CCc1cc2c(C(=O)NC)c(-c3ccc(F)cc3)oc2nc1N(CCCN1CCCS1(=O)=O)S(C)(=O)=O` [Example 23.1, 6-{[3-(1,1-Dioxo-isothiazolidin-2-yl)-propyl]-methanesulfonyl-amino}-5-ethyl-2-(4-fluoro-phenyl)-furo[2,3-b]pyridine-3-carboxylic acid methylamide] showed a pIC50 [1] of 7.35 and a pIC50 [2] of at least 7.00.

`CNC(=O)c1c(-c2ccc(F)cc2)oc2nc3c(cc12)CCCCCN3S(C)(=O)=O` [Example 36, 2-(4-Fluoro-phenyl)-10-methanesulfonyl-5,6,7,8,9,10-hexahydro-1-oxa-10,11-diaza-cycloocta[f]indene-3-carboxylic acid methylamide] showed a pIC50 [1] of 7.30 and a pIC50 [2] of at least 7.00.

Work on `CNC(=O)c1c(-c2ccc(Cl)cc2)oc2nc(N(CCC[C@@H]3CCCS3(=O)=O)S(C)(=O)=O)c(C3CC3)cc12` [Example 24.8, 2-(4-Chloro-phenyl)-5-cyclopropyl-6-{[3-((R)-1,1-dioxo-tetrahydrothiophen-2-yl)-propyl]-methanesulfonyl-amino}-furo[2,3-b]pyridine-3-carboxylic acid methylamide] yielded a pIC50 [1] of 9.00 and a pIC50 [2] of at least 7.00.

`CNC(=O)c1c(-c2ccc(C)cc2)oc2nc(N(CCCCC(=O)OC)S(C)(=O)=O)c(C3CC3)cc12` [Example 25.2, methyl 5-(N-(5-cyclopropyl-3-(methylcarbamoyl)-2-p-tolylfuro[2,3-b]pyridin-6-yl)methylsulfonamido) pentanoate] gave a pIC50 [1] of 8.52 and a pIC50 [2] of at least 7.00.

With `CNC(=O)c1c(-c2ccc(C3CC3)cc2F)oc2nc(N(C)S(C)(=O)=O)c(C3CC3)cc12` [Example 2.98, 5-cyclopropyl-2-(4-cyclopropyl-2-fluorophenyl)-N-methyl-6-(N-methylmethylsulfonamido)furo[2,3-b]pyridine-3-carboxamide] the pIC50 [1] was 8.30 and the pIC50 [2] was at least 7.00.

`CNC(=O)c1c(-c2ccc(C)cc2)oc2nc(N(CC[C@@H]3C[C@H]3C(=O)O)S(C)(=O)=O)c(C3CC3)cc12` [Example 28.1, (1R,2S)-2-(2-(N-(5-cyclopropyl-3-(methylcarbamoyl)-2-p-tolylfuro[2,3-b]pyridin-6-yl)methylsulfonamido)ethyl) cyclopropanecarboxylic acid] showed a pIC50 [1] of 8.70 and a pIC50 [2] of at least 7.00.

`CNC(=O)c1c(-c2ccc(C)cc2)oc2nc(N(CC[C@H]3C[C@@H]3C(=O)O)S(C)(=O)=O)c(C3CC3)cc12` [Example 28.2, (1S,2R)-2-(2-(N-(5-cyclopropyl-3-(methylcarbamoyl)-2-p-tolylfuro[2,3-b]pyridin-6-yl)methylsulfonamido)ethyl) cyclopropanecarboxylic acid] was tested, and the pIC50 [1] was 8.70 and the pIC50 [2] was at least 7.00.

Molecule `C=Cc1cc2c(C(=O)NC)c(-c3ccc(F)cc3)oc2nc1N(C)S(C)(=O)=O` [Example 2.1, 2-(4-fluorophenyl)-N-methyl-6-(N-methylmethylsulfonamido)-5-vinylfuro[2,3-b]pyridine-3-carboxamide] has a pIC50 [1] of 7.92 and a pIC50 [2] of at least 7.00.

`CNC(=O)c1c(-c2ccc(F)cc2)oc2nc(N(CCO)S(C)(=O)=O)c(C3CC3)cc12` [Example 2.2, 5-cyclopropyl-2-(4-fluorophenyl)-6-(N-(2-hydroxyethyl)methylsulfonamido)-N-methylfuro[2,3-b]pyridine-3-carboxamide] was tested, and the pIC50 [1] was 7.27 and the pIC50 [2] was at least 7.00.

With `CNC(=O)c1c(-c2ccc(C)cc2)oc2nc(N(CCCCC(=O)O)S(C)(=O)=O)c(C3CC3)cc12` [Example 25.1, 5-(N-(5-cyclopropyl-3-(methylcarbamoyl)-2-p-tolylfuro[2,3-b]pyridin-6-yl)methylsulfonamido)pentanoic acid] the pIC50 [1] was 8.70 and the pIC50 [2] was at least 7.00.

`CNC(=O)c1c(-c2ccc(Oc3ccccc3)cc2)oc2nc(N(CCCCC(=O)O)S(C)(=O)=O)c(C3CC3)cc12` [Example 27, 5-(N-(5-cyclopropyl-3-(methylcarbamoyl)-2-(4-phenoxyphenyl)furo[2,3-b]pyridin-6-yl)methylsulfonamido) pentanoic acid] was tested, and the pIC50 [1] was 9.00 and the pIC50 [2] was at least 7.00.

For `CNC(=O)c1c(-c2ccc(F)cc2)oc2nc(N(CCCC(C)O)S(C)(=O)=O)c(C3CC3)cc12` (stereo not shown) [Example 26.4, 5-cyclopropyl-2-(4-fluorophenyl)-6-(N-(4-hydroxypentyl)methylsulfonamido)-N-methylfuro[2,3-b]pyridine-3-carboxamide], the pIC50 [1] was 8.30 and the pIC50 [2] was at least 7.00.

`CNC(=O)c1c(-c2ccc(F)cc2)oc2nc3c(cc12)CCCCCCN3S(C)(=O)=O` [Example 36.4, 2-(4-Fluoro-phenyl)-11-methanesulfonyl-6,7,8,9,10,11-hexahydro-5H-1-oxa-11,12-diaza-cyclonona[f]indene-3-carboxylic acid methylamide] showed a pIC50 [1] of 8.30 and a pIC50 [2] of at least 7.00.

`CNC(=O)c1c(-c2ccc(C)cc2)oc2nc(N(C)S(C)(=O)=O)c(I)cc12` [Example 2.9, 5-iodo-N-methyl-6-(N-methylmethylsulfonamido)-2-p-tolylfuro[2,3-b]pyridine-3-carboxamide] was tested, and the pIC50 [1] was 7.80 and the pIC50 [2] was at least 7.00.

`CNC(=O)c1c(-c2ccc(Cl)cc2)oc2nc(N(CCCC(C)(C)C(=O)O)S(C)(=O)=O)c(C3CC3)cc12` [Example 28.3, 5-(N-(2-(4-chlorophenyl)-5-cyclopropyl-3-(methylcarbamoyl)furo[2,3-b]pyridin-6-yl)methylsulfonamido)-2,2-dimethylpentanoic acid] gave a pIC50 [1] of 8.70 and a pIC50 [2] of at least 7.00.

`CNC(=O)c1c(-c2ccc(F)cc2)oc2nc(N(C)S(C)(=O)=O)c(CCCC(=O)NS(C)(=O)=O)cc12` [Example 4.5, 2-(4-fluorophenyl)-N-methyl-6-(N-methylmethylsulfonamido)-5-(4-(methylsulfonamido)-4-oxobutyl)furo[2,3-b]pyridine-3-carboxamide] gave a pIC50 [1] of 6.69 and a pIC50 [2] of at most 5.30.

For `CNC(=O)c1c(-c2ccc(F)cc2)oc2nc(N(C)S(C)(=O)=O)c(CCCCC(C)(O)C(C)(C)O)cc12` (stereo not shown) [Example 4.9, 5-(5,6-dihydroxy-5,6-dimethylheptyl)-2-(4-fluorophenyl)-N-methyl-6-(N-methylmethylsulfonamido)furo[2,3-b]pyridine-3-carboxamide], the pIC50 [1] was 7.12 and the pIC50 [2] was at least 7.00.

For `CNC(=O)c1c(-c2ccc(C)cc2)oc2nc(N(CCCS(C)(=O)=O)S(C)(=O)=O)c(I)cc12` [Example 18.994, 5-iodo-N-methyl-6-(N-(3-(methylsulfonyl)propyl)methylsulfonamido)-2-p-tolylfuro[2,3-b]pyridine-3-carboxamide], the pIC50 [1] was 7.85 and the pIC50 [2] was at least 7.00.

In the case of `CNC(=O)c1c(-c2ccc(F)cc2)oc2nc3c(cc12)C(C)C(O)CCN3S(C)(=O)=O` (stereo not shown) [Example 31, 2-(4-Fluoro-phenyl)-6-hydroxy-9-methanesulfonyl-5-methyl-6,7,8,9-tetrahydro-5H-1-oxa-9,10-diaza-cyclohepta[f]indene-3-carboxylic acid methylamide], the pIC50 [1] was 7.46 and the pIC50 [2] was at least 7.00.

`CNC(=O)c1c(-c2ccc(C)cc2)oc2nc(N(CCCC3CCCS3(=O)=O)S(C)(=O)=O)c(I)cc12` (stereo not shown) [Example 18.99, 6-{[3-(1,1-Dioxo-tetrahydrophiophen-2-yl)-propyl]-methanesulfonyl-amino}-5-iodo-2-p-totyl-furo[2,3-b]pyridine-3-carboxylic acid methylamide] gave a pIC50 [1] of 8.30 and a pIC50 [2] of at least 7.00.
